The text below walks through data of patent US20190374526A1, “Substituted Heterocyclic Compounds as Inhibitors of PRDM9” (Merck Sharp & Dohme Corp., priority 2018, published 2019).

The target of this test is T1, hPRDM9 (amino acids 195-385) (Homo sapiens, UniProt Q9NQV7).
T1 construct: 1.25 nM hPRDM9 (amino acids 195-385)
T1 sequence (Q9NQV7 195-385): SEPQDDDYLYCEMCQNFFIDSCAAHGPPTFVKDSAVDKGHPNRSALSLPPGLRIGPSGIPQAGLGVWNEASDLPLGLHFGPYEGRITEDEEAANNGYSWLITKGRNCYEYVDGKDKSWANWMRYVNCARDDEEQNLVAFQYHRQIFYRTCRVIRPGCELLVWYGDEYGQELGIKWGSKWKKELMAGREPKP
In words: PRDM9 biochemical assay (radiometric, 3[H] methyl transfer from SAM to biotinylated histone H3 peptide). To be noted: 1 nM hPRDM9, 1 μM biotinylated H3(1-25)K4 peptide, 5 μM 3[H]-SAM, 55 μM un-labeled SAM, 25° C., 30 minutes. Here is the method: The PRDM9 biochemical assay was carried out using a radiometric format involving the transfer of ^3[H] methyl group from S-adenosyl methionine (SAM) to a biotinylated histone H3 peptide (H3(1-25)K4). 10 mM compounds in DMSO were diluted 20 fold in assay buffer (10 mM Tris-HCl, pH 8.5, 10 mM DTT, and 0.01% Triton X-100) before adding […] to a well in a 384 well polypropylene microplate plate and adding 8 μl of reaction mix (1.25 nM hPRDM9 (amino acids 195-385), 1.25 μM biotinylated H3 peptide in assay buffer). The ^3[H]-SAM and cold SAM stock solutions were diluted to 50 μM and 550 μM respectively in assay buffer before aliquoting 1 μl of 50 μM ^3[H]-SAM, 550 μM SAM into each well to initiate the reaction. The assay was performed at 25° C. at the final concentrations of 1 nM hPRDM9, 1 μM peptide, 5 μM ^3[H]-SAM, and 55 μM un-labeled SAM in assay buffer. The reaction was quenched after 30 minutes by adding 25 μl 7.5 M Guanidine-HCl. Quenched reactions were transferred to streptavidin coated Flashplates, diluted two fold in assay buffer, incubated for 1 hour, and read on a Perkin Elmer Topcount instrument. Compound activity was expressed relative to activity of 0.5% (v/v) DMSO treated samples and fit to a four parameter logistic equation to determine IC50 values.
`CC(C)c1cc(N2CC3(CCCN(c4nc(-c5cc(Cl)cc(Cl)c5)no4)C3)C2)ccn1` [Compound 206]: the IC50 is 1.6 µM.
With `Cc1cc(N2CCC(C3CCCN(c4nc(-c5cc(Cl)cc(Cl)c5)no4)C3)CC2)ccn1` (stereo not drawn) [Compound 6] the figure was 11.3 µM; with `Cc1cc(NC(C)C2CCN(c3nc(-c4cc(Cl)cc(Cl)c4)no3)C2)ccn1` (stereo not drawn) [Compound 222], 13.8 µM.
In turn, `Cc1cc(NC(C)C2CCN(c3nc(-c4cc(Cl)cc(Cl)c4)no3)C2)ccn1` (stereo not drawn) [Compound 227] returned an IC50 of 35.5 µM.
For `COc1cc(OC)cc(-c2noc(N3CC(F)(F)OC4(CCN(c5ccnc(C)c5)CC4)C3)n2)c1` [Compound 184] the value was 0.814 µM; for `COc1cc(C(N)=O)cc(-c2noc(N3CCN(C)C4(CCN(c5ccnc(C)c5)CC4)C3)n2)c1` [Compound 246, 3-methoxy-5-(5-(1-methyl-9-(2-methylpyridin-4-yl)-1,4,9-triazaspiro[5.5]undecan-4-yl)-1,2,4-oxadiazol-3-yl)benzamide], 0.083 µM; for `COc1cc(OC)cc(-c2noc(N3CCCC4(CCN(c5cc(C)nc(F)c5)CC4)C3)n2)c1` [Compound 188], 45 µM.
For `Cc1cc(N2CCC3(CCCN(c4nc(-c5cc(Cl)cc(Cl)c5)no4)C3)CC2)ccn1` [Compound 216] the value was 0.246 µM; for `COc1cc(OC)cc(-c2noc(N3CCO[C@]4(C[C@H]5CC[C@@H](C4)N5c4ccnc(C)c4)C3)n2)c1` [Compound 160], 0.35 µM.
With `Cc1cc(N2CCC(Nc3nc(-c4cc(Cl)cc(Cl)c4)no3)CC2)ccn1` [Compound 225] the figure was not below 50 µM; with `Cc1cc(N[C@@H]2[C@@H](O)CN(c3nc(-c4cc(Cl)cc(Cl)c4)no3)[C@H]2C)ccn1` (racemic) [Compound 29], 13.3 µM.
As for `Cc1cc(NC2CCCC(Nc3nc(-c4cc(Cl)cc(Cl)c4)no3)C2)ccn1` (stereo not drawn) [Compound 30], the midpoint of inhibition, the IC50, lay at 28.2 µM.
For `Cc1cc(N2CC3(C2)CN(c2nc(-c4cc(Cl)cc(Cl)c4)no2)CCO3)ccn1` [Compound 119] the value was 0.3 µM; for `COc1ccc(-c2c(-c3cc(Cl)cc(Cl)c3)noc2N2CCCC3(CN(c4ccnc(C)c4)C3)C2)c(OC)c1` [Compound 125], 25.1 µM.
As to `Cc1cc(N2CC3(CCCN(c4onc(-c5cc(Cl)cc(Cl)c5)c4-c4ccc(N)cc4)C3)C2)ccn1` [Compound 123], the IC50 turned out to be 6.67 µM.
With `Cc1cc(N2CCC(F)(CNc3nc(-c4cc(Cl)cc(Cl)c4)no3)CC2)ccn1` [Compound 8] the figure was 0.804 µM.
For `COc1cc(OC)cc(-c2noc(N3CCN(C)C4(CN(c5ccnc(C)c5)C4)C3)n2)c1` [Compound 164] the value was 0.315 µM.
With `Cc1cc(NC2CC3(CCN(c4nc(-c5cc(Cl)cc(Cl)c5)no4)C3)C2)ccn1` (stereo not drawn) [Compound 155] the figure was 3.46 µM.
With `Cc1cc(N2CCC(N(c3nc(-c4cc(Cl)cc(Cl)c4)no3)C3CC3)CC2)ccn1` [Compound 51], the midpoint of inhibition, the IC50, lay at 7.29 µM.
For `COc1cccc(-c2nc(N3CCCC4(CCN(c5ccnc(C)c5)CC4)C3)no2)c1` [Compound 87] the value was 0.47 µM.
For `Cc1cc(N2CC3(CCCN(c4nc(-c5cccc(Br)c5)no4)C3)C2)ccn1` [Compound 117] the value was 2 µM; for `COc1cc(OC)cc(-c2nnc(N3CCN(C)C4(CCN(c5ccnc(C)c5)CC4)C3)o2)c1` [Compound 162], 0.47 µM; for `COc1cc(OC)cc(-c2noc(N3CCCC4(CN(c5ccnc(C)c5)C4)C3)n2)c1` [Compound 182], 0.163 µM.
`COc1cccc(-c2noc(N3CCC(CCNc4ccnc(C)c4)C3)n2)c1` (stereo not drawn) [Compound 171] had an IC50 of 4 µM.
In turn, `Cc1cc(NC[C@H]2CCCN2c2nc(-c3cc(Cl)cc(Cl)c3)no2)ccn1` [Compound 12] displayed an IC50 of 41.5 µM.
With `COc1cc(OC)cc(-c2noc(N3CC4(CCC3=O)CCN(c3ccnc(C)c3)CC4)n2)c1` [Compound 150] the figure was 0.066 µM; with `Cc1cc(NCCC2CN(c3nc(-c4cc(Cl)cc(Cl)c4)no3)CCO2)ccn1` (stereo not drawn) [Compound 170], 0.4 µM.
With `Cc1cc(N2CCN(c3nc(-c4cc(Cl)cc(Cl)c4)no3)CC2)ccn1` [Compound 79] the figure was 19.1 µM; with `Cc1cc(N2CCC3(CCC3Nc3nc(-c4cc(Cl)cc(Cl)c4)no3)CC2)ccn1` (stereo not drawn) [Compound 230], 11.5 µM.
For `Cc1cc(N2CCC3(CC2)CN(c2nc(-c4cc(OC5CC5)cc(OC5CC5)c4)no2)CCN3C)ccn1` [Compound 95] the value was 0.044 µM; for `Cc1cc(NC2CCC(O)(CNc3nc(-c4cc(Cl)cc(Cl)c4)no3)CC2)ccn1` (stereo not drawn) [Compound 69], 7.04 µM.
With `COc1cc(OC)cc(-c2noc(N3CCC4(CC5CCC(C4)N5c4ccnc(C)c4)C3)n2)c1` (stereo not drawn) [Compound 158], the IC50 worked out at 3.81 µM.
For `Cc1cc(N2CCC(CNc3nc(-c4cc(Cl)cc(Cl)c4)no3)C2)ccn1` (stereo not drawn) [Compound 215] the value was 11 µM; for `CCC1(CNc2ccnc(C)c2)CCN(c2nc(-c3cc(Cl)cc(Cl)c3)no2)C1` (stereo not drawn) [Compound 23], 17.8 µM.
For `COc1cc(OC(F)(F)F)cc(-c2nc(N3CCCC4(CCN(c5ccnc(C)c5)CC4)C3)no2)c1` [Compound 91, 5-(3-methoxy-5-(trifluoromethoxy)phenyl)-3-(9-(2-methylpyridin-4-yl)-2,9-diazaspiro[5.5]undecan-2-yl)-1,2,4-oxadiazole] the value was 0.15 µM.
For `Cc1cc(N2CC3(CCCN(c4nc(-c5ccccc5Cl)no4)C3)C2)ccn1` [Compound 148] the value was not below 50 µM; for `Cc1cc(N2CCC(CNc3nc(-c4cc(Cl)cc(Cl)c4)no3)CC2)ccn1` [Compound 233], 2.75 µM.
For `COc1cc(OC)cc(-c2noc(N3CCC(O)C4(CCN(c5ccnc(C)c5)CC4)C3)n2)c1` (stereo not drawn) [Compound 186], the IC50 stood at 0.217 µM.
Take `CCOc1cc(OCC)cc(-c2noc(N3CCN(C)C4(CCN(c5ccnc(C)c5)CC4)C3)n2)c1` [Compound 96]: the IC50 turned out to be 0.103 µM.
With `Cc1cc(N2CCC3(CCN(c4nc(-c5cc(Cl)cc(Cl)c5)no4)CC3)C2)ccn1` [Compound 20] the figure was 7.79 µM.
Compound `COc1ccc(-c2noc(N3CCCC4(CN(c5ccnc(C)c5)C4)C3)n2)cc1OC` [Compound 145] came in with a half-maximal inhibitory concentration (IC50) of 4.7 µM.
In turn, `Cc1cc(N2CC3(CCCN(c4cc(-c5cccc(F)c5F)no4)C3)C2)ccn1` [Compound 133, 3-(2,3-difluorophenyl)-5-(2-(2-methylpyridin-4-yl)-2,6-diazaspiro[3.5]nonan-6-yl)isoxazole] yielded an IC50 of 17 µM.
In turn, `Cc1cc(N[C@H]2CC[C@H](Nc3nc(-c4cc(Cl)cc(Cl)c4)no3)C2)ccn1` (racemic) [Compound 50] came in with an IC50 of 16.4 µM.
For `Cc1cc(N2CC[C@H](CNc3nc(-c4cc(Cl)cc(Cl)c4)no3)C2)ccn1` [Compound 235] the value was 29.5 µM; for `Cc1cc(N2CC3CCN(c4nc(-c5cc(Cl)cc(Cl)c5)no4)C3C2)ccn1` (stereo not drawn) [Compound 212], 24 µM.
With `Cc1cc(N2CC3CCCN(c4nc(-c5cc(Cl)cc(Cl)c5)no4)C3C2)ccn1` (stereo not drawn) [Compound 68] the figure was 2.8 µM; with `Cc1cc(NCC(F)CNc2nc(-c3cc(Cl)cc(Cl)c3)no2)ccn1` (stereo not drawn) [Compound 43], 13.3 µM; with `Cc1cc(NC2CC23CCN(c2nc(-c4cc(Cl)cc(Cl)c4)no2)C3)ccn1` (stereo not drawn) [Compound 156], 16 µM.
For `Cc1cc(NCC2CN(c3nc(-c4cc(Cl)cc(Cl)c4)no3)CCC2C)ccn1` (stereo not drawn) [Compound 174] the value was 1.58 µM; for `Cc1cc(N2CCC3(CC2)CC3Nc2nc(-c3cc(Cl)cc(Cl)c3)no2)ccn1` (stereo not drawn) [Compound 80], 2.83 µM.
As to `Cc1cc(N2C[C@H]3CCN(c4nc(-c5cc(Cl)cc(Cl)c5)no4)C[C@H]3C2)ccn1` (racemic) [Compound 36], the IC50 was determined as 27.8 µM.
With `COc1cccc(-c2noc(N3CCOC(CCNc4ccnc(C)c4)C3)n2)c1` (stereo not drawn) [Compound 169] the figure was 2 µM; with `Cc1cc(N2CC(C3CCCCN3c3nc(-c4cc(Cl)cc(Cl)c4)no3)C2)ccn1` (stereo not drawn) [Compound 44], 0.5 µM.
In turn, `Cc1cc(NCC2CC(C)N(c3nc(-c4cc(Cl)cc(Cl)c4)no3)C2)ccn1` (stereo not drawn) [Compound 173] came in with an IC50 of 5.5 µM.
For `COc1cc(OC)cc(-c2noc(N3CCN(C(=O)N(C)C)C4(CCN(c5ccnc(C)c5)CC4)C3)n2)c1` [Compound 101] the value was 0.45 µM; for `Cc1cc(N2CC3(CCCN(c4nc(-c5cc(Cl)cc(Cl)c5)no4)C3)C2)ccn1` [Compound 116, 3-(3,5-dichlorophenyl)-5-(2-(2-methylpyridin-4-yl)-2,6-diazaspiro[3.5]nonan-6-yl)-1,2,4-oxadiazole], 0.072 µM.
Turning to `Cc1cc(N2CCC(O)(CNc3nc(-c4cc(Cl)cc(Cl)c4)no3)C2)ccn1` (stereo not drawn) [Compound 56], the IC50 was 28 µM.

By IC50 is commonly meant the concentration at which inhibition is half-maximal. Read a high IC50 as a need for much substance.
